From patent US20060069132A1, “Azolecarboxamide herbicides” (priority 2004, published 2006)

Columns and labels:
[1] = tested on: barnyardgrass; test: Test A pre-/postemergence herbicide test; format: in vivo, Echinochloa crus-galli
In short: (§1)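 Greenhouse injury scoring (0–100, complete control = 100) at approximately ten days follows simultaneous pre- and postemergence application. Soil received a directed spray after seeding; seedlings of 2–10 cm at the one- to two-leaf stage were sprayed to runoff.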

[2] = tested on: large crabgrass; test: Test A pre-/postemergence herbicide test; format: in vivo, Digitaria sanguinalis
In short: as §1

[3] = tested on: giant foxtail; test: Test A pre-/postemergence herbicide test; format: in vivo, Setaria faberi
In short: as §1

[4] = tested on: morningglory; test: Test A pre-/postemergence herbicide test; format: in vivo, Ipomoea spp.
In short: as §1

[5] = tested on: redroot pigweed; test: Test A pre-/postemergence herbicide test; format: in vivo, Amaranthus retroflexus
In short: as §1

[6] = tested on: velvetleaf; test: Test A pre-/postemergence herbicide test; format: in vivo, Abutilon theophrasti
In short: as §1

[7] = tested on: barnyardgrass; test: Test B pre-/postemergence herbicide test; format: in vivo, Echinochloa crus-galli
In short: (§2)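 Formulation: non-phytotoxic solvent mix with surfactant. Timing: preemergence on seed and postemergence on 2–18 cm plants, applied concurrently. Readout after 13–15 d greenhouse: visual 0–100 control rating against controls.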

[8] = tested on: Surinam grass; test: Test B pre-/postemergence herbicide test; format: in vivo, Urochloa decumbens
In short: as §2

[9] = tested on: cocklebur; test: Test B pre-/postemergence herbicide test; format: in vivo, Xanthium strumarium
In short: as §2

[10] = tested on: corn; test: Test B pre-/postemergence herbicide test; format: in vivo, Zea mays
In short: as §2

[11] = tested on: large crabgrass; test: Test B pre-/postemergence herbicide test; format: in vivo, Digitaria sanguinalis
In short: as §2

[12] = tested on: giant foxtail; test: Test B pre-/postemergence herbicide test; format: in vivo, Setaria faberi
In short: as §2

[13] = tested on: lambsquarters; test: Test B pre-/postemergence herbicide test; format: in vivo, Chenopodium album
In short: as §2

[14] = tested on: morningglory; test: Test B pre-/postemergence herbicide test; format: in vivo, Ipomoea coccinea
In short: as §2

[15] = tested on: pigweed; test: Test B pre-/postemergence herbicide test; format: in vivo, Amaranthus retroflexus
In short: as §2

[16] = tested on: rice; test: Test B pre-/postemergence herbicide test; format: in vivo, Oryza sativa; details: preemergence
In short: as §2

[17] = tested on: velvetleaf; test: Test B pre-/postemergence herbicide test; format: in vivo, Abutilon theophrasti
In short: as §2

[18] = tested on: blackgrass; test: Test B postemergence herbicide test; format: in vivo, Alopecurus myosuroides; details: scale 0 (no effect) to 100 (complete control)
In short: (§3)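 Scale 0–100: zero equals no visible effect, 100 complete control, judged by eye relative to controls. Timing: 13 to 15 days in greenhouse post-treatment. Growth stage at spraying: two leaves (paddy) or one to four leaves, 2–18 cm (postemergence).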

[19] = tested on: wheat; test: Test B postemergence herbicide test; format: in vivo, Triticum aestivum; set-up: key to Wheat plant response rating: 0 = no effect, 100 = complete control; details: scale 0 (no effect) to 100 (complete control)
In short: as §3

[20] = tested on: wild oat; test: Test B postemergence herbicide test; format: in vivo, Avena fatua; details: scale 0 (no effect) to 100 (complete control)
In short: as §3

[21] = tested on: rice; test: Test B flooded paddy test; format: in vivo, Oryza sativa; details: 1000 g ai/ha, visual rating, scale 0 to 100 (0 no effect, 100 complete control), 13 to 15 days
In short: as §3

[22] = tested on: small flower umbrella sedge; test: Test B flooded paddy test; format: in vivo, Cyperus difformis; details: 1000 g ai/ha, visual rating, scale 0 to 100 (0 no effect, 100 complete control), 13 to 15 days
In short: as §3

[23] = tested on: ducksalad; test: Test B flooded paddy test; format: in vivo, Heteranthera limosa; details: 1000 g ai/ha, visual rating, scale 0 to 100 (0 no effect, 100 complete control), 13 to 15 days
In short: as §3

[24] = tested on: barnyardgrass; test: Test B flooded paddy test; format: in vivo, Echinochloa crus-galli; details: 1000 g ai/ha, visual rating, scale 0 to 100 (0 no effect, 100 complete control), 13 to 15 days
In short: as §3

[25] = Postemergence, 500 g ai/ha, 0 to 100 scale, 0 no effect, 100 complete control
[26] = Postemergence, 2000 g ai/ha, 0 to 100 scale, 0 no effect, 100 complete control
[27] = Preemergence, 500 g ai/ha, visual rating, 0 to 100 scale (0 no effect, 100 complete control)
[28] = Preemergence, 2000 g ai/ha, 0 to 100 scale, 0 no effect, 100 complete control
[29] = 500 g ai/ha, visual rating 0-100, 0 no effect, 100 complete control, preemergence
[30] = Postemergence, 500 g ai/ha, visual rating after 13 to 15 days, scale 0 (no effect) to 100 (complete control)
[31] = postemergence, 125 g ai/ha, visual rating, scale 0 (no effect) to 100 (complete control)
[32] = preemergence, 125 g ai/ha, 0 to 100 scale, 0 is no effect, 100 is complete control
[33] = Postemergence, 500 g ai/ha, visual rating after 13 to 15 days
[34] = postemergence, 125 g ai/ha, visual rating

C=CCOC(=O)c1cccc(NC(=O)c2cc(C(C)(C)C)nn2CC)c1C [Compound 94]
30: Plant response rating, Crabgrass, Large [2, 26] | Plant response rating, Pigweed [5, 26] | Plant response rating, Foxtail, Giant [12, 29] | Plant response rating, Pigweed [15, 30] | Ducksalad plant response rating [23]
5: Velvetleaf plant response rating [6, 27]
50: Plant response rating, Cocklebur [9, 30] | Lambsquarters plant response rating [13, 31] | Sedge, Umbrella plant response rating [22]
35: Plant response rating, Barnyardgrass [1, 26] | Crabgrass, Large plant response rating [2, 27] | Pigweed plant response rating [5, 27]
20: Barnyardgrass plant response rating [1, 25] | Barnyardgrass plant response rating [1, 27] | Morningglory plant response rating [4, 25] | Plant response rating, Morningglory [4, 26] | Velvetleaf plant response rating [6, 25] | Plant response rating, Barnyardgrass [7, 29] | Cocklebur plant response rating [9, 31] | Plant response rating, Corn [10, 30] | Corn plant response rating [10, 31] | Plant response rating, Crabgrass, Large [11, 29] | Plant response rating, Pigweed [15, 29] | Plant response rating, Velvetleaf [17, 30] | Barnyardgrass plant response rating [24]
80: Plant response rating, Lambsquarters [13, 30]
25: Pigweed plant response rating [5, 25] | Plant response rating, Velvetleaf [6, 26] | Velvetleaf plant response rating ([6]; Preemergence, 2000 g ai/ha, visual rating, 0 to 100 scale (0 no effect, 100 complete control))
0: Plant response rating, Surinam Grass [8, 29] | Plant response rating, Surinam Grass [8, 32] | Plant response rating, Cocklebur [9, 29] | Plant response rating, Cocklebur [9, 32] | Plant response rating, Corn [10, 29] | Plant response rating, Corn [10, 32] | Plant response rating, Lambsquarters [13, 29] | Plant response rating, Lambsquarters [13, 32] | Plant response rating, Morningglory [14, 29] | Plant response rating, Morningglory [14, 32] | Plant response rating, Pigweed [15, 32] | Plant response rating, Rice ([16]; 500 g ai/ha, visual rating 0-100, 0 no effect, 100 complete control) | Plant response rating, Rice ([16]; 125 g ai/ha, 0 to 100 scale, 0 is no effect, 100 is complete control) | Plant response rating, Velvetleaf [17, 29] | Plant response rating, Velvetleaf [17, 32] | Blackgrass plant response rating [18, 34] | Wheat plant response rating [19, 34]
60: Crabgrass, Large plant response rating [2, 28]
10: Crabgrass, Large plant response rating [2, 25] | Foxtail, Giant plant response rating [3, 25] | Morningglory plant response rating [4, 27] | Morningglory plant response rating [4, 28] | Plant response rating, Barnyardgrass [7, 30] | Barnyardgrass plant response rating [7, 31] | Plant response rating, Barnyardgrass [7, 32] | Plant response rating, Surinam Grass [8, 30] | Surinam Grass plant response rating [8, 31] | Plant response rating, Crabgrass, Large [11, 30] | Crabgrass, Large plant response rating [11, 31] | Plant response rating, Crabgrass, Large [11, 32] | Plant response rating, Foxtail, Giant [12, 30] | Foxtail, Giant plant response rating [12, 31] | Plant response rating, Foxtail, Giant [12, 32] | Plant response rating, Morningglory [14, 30] | Morningglory plant response rating [14, 31] | Pigweed plant response rating [15, 31] | Velvetleaf plant response rating [17, 31] | Plant response rating, Blackgrass [18, 33] | Plant response rating, Wheat [19, 33] | Plant response rating, Oat, Wild [20, 33] | Oat, Wild plant response rating [20, 34] | Rice plant response rating [21]
15: Plant response rating, Foxtail, Giant [3, 26]
85: Pigweed plant response rating [5, 28]
45: Foxtail, Giant plant response rating [3, 27]
65: Barnyardgrass plant response rating [1, 28] | Foxtail, Giant plant response rating [3, 28]
